Values after ≈ are worked out from the molar mass of the structure shown.
Experiments:
[1] = tested on: Campylobacter coli; experiment: Antibacterial activity against Campylobacter coli by broth microdilution method; type: functional
[2] = tested on: Vibrio alginolyticus; experiment: Antibacterial activity against Vibrio alginolyticus by broth microdilution method; type: functional
[3] = tested on: Yersinia enterocolitica; experiment: Antibacterial activity against Yersinia enterocolitica assessed as percent susceptible isolates by broth microdilution method; type: functional
[4] = tested on: Plesiomonas shigelloides; experiment: Antibacterial activity against Plesiomonas shigelloides assessed as percent susceptible isolates by broth microdilution method; type: functional
[5] = tested on: Campylobacter jejuni; experiment: Antibacterial activity against Campylobacter jejuni by broth microdilution method; type: functional
[6] = tested on: Aeromonas veronii; experiment: Antibacterial activity against Aeromonas veronii by broth microdilution method; type: functional
[7] = tested on: Vibrio fluvialis; experiment: Antibacterial activity against Vibrio fluvialis by broth microdilution method; type: functional
[8] = tested on: Yersinia enterocolitica; experiment: Antibacterial activity against Yersinia enterocolitica assessed as percent resistant isolates by broth microdilution method; type: functional
[9] = tested on: Shigella sonnei; experiment: Antibacterial activity against Shigella sonnei by broth microdilution method; type: functional
[10] = tested on: Salmonella enteritidis; experiment: Antibacterial activity against Salmonella enterica serovar Enteritidis assessed as percent susceptible isolates by broth microdilution method; type: functional, Salmonella enterica subsp. enterica serovar Enteritidis; conditions: pooled result: one value given for 5 cell lines, strains, targets or settings
[11] = tested on: Aeromonas sobria; experiment: Antibacterial activity against Aeromonas sobria assessed as percent resistant isolates by broth microdilution method; type: functional
[12] = tested on: Aeromonas hydrophila; experiment: Antibacterial activity against Aeromonas hydrophila by broth microdilution method; type: functional
[13] = tested on: Campylobacter jejuni; experiment: Antibacterial activity against Campylobacter jejuni assessed as percent resistant isolates by broth microdilution method; type: functional; conditions: pooled result: one value given for 2 cell lines, strains, targets or settings
[14] = tested on: Aeromonas caviae; experiment: Antibacterial activity against Aeromonas caviae by broth microdilution method; type: functional
[15] = tested on: Aeromonas caviae; experiment: Antibacterial activity against Aeromonas caviae assessed as percent susceptible isolates by broth microdilution method; type: functional
[16] = tested on: Vibrio cholerae; experiment: Antibacterial activity against Vibrio cholerae by broth microdilution method; type: functional
[17] = tested on: Shigella sonnei; experiment: Antibacterial activity against Shigella sonnei assessed as percent resistant isolates by broth microdilution method; type: functional; conditions: pooled result: one value given for 4 cell lines, strains, targets or settings
[18] = tested on: Escherichia coli; experiment: Antibacterial activity against Escherichia coli assessed as percent susceptible isolates by broth microdilution method; type: functional
[19] = tested on: Shigella dysenteriae; experiment: Antibacterial activity against Shigella dysenteriae by broth microdilution method; type: functional
[20] = tested on: Shigella boydii; experiment: Antibacterial activity against Shigella boydii assessed as percent susceptible isolates by broth microdilution method; type: functional; conditions: pooled result: one value given for 3 cell lines, strains, targets or settings
[21] = tested on: Aeromonas hydrophila; experiment: Antibacterial activity against Aeromonas hydrophila assessed as percent resistant isolates by broth microdilution method; type: functional
[22] = tested on: Yersinia pseudotuberculosis; experiment: Antibacterial activity against Yersinia pseudotuberculosis by broth microdilution method; type: functional
[23] = tested on: Shigella dysenteriae; experiment: Antibacterial activity against Shigella dysenteriae assessed as percent susceptible isolates by broth microdilution method; type: functional
[24] = tested on: Escherichia coli; experiment: Antibacterial activity against Escherichia coli by broth microdilution method; type: functional
[25] = tested on: Salmonella typhi; experiment: Antibacterial activity against Salmonella enterica serovar Typhi assessed as percent susceptible isolates by broth microdilution method; type: functional, Salmonella enterica subsp. enterica serovar Typhi
[26] = tested on: Aeromonas caviae; experiment: Antibacterial activity against Aeromonas caviae assessed as percent resistant isolates by broth microdilution method; type: functional
[27] = tested on: Yersinia enterocolitica; experiment: Antibacterial activity against Yersinia enterocolitica by broth microdilution method; type: functional
[28] = tested on: Campylobacter jejuni; experiment: Antibacterial activity against Campylobacter jejuni assessed as percent susceptible isolates by broth microdilution method; type: functional; conditions: pooled result: one value given for 2 cell lines, strains, targets or settings
[29] = tested on: Plesiomonas shigelloides; experiment: Antibacterial activity against Plesiomonas shigelloides assessed as percent resistant isolates by broth microdilution method; type: functional
[30] = tested on: Shigella flexneri; experiment: Antibacterial activity against Shigella flexneri by broth microdilution method; type: functional
[31] = tested on: Aeromonas veronii; experiment: Antibacterial activity against Aeromonas veronii assessed as percent resistant isolates by broth microdilution method; type: functional
[32] = tested on: Salmonella typhimurium; experiment: Antibacterial activity against Salmonella enterica serovar Typhimurium assessed as percent resistant isolates by broth microdilution method; type: functional, Salmonella enterica subsp. enterica serovar Typhimurium; conditions: pooled result: one value given for 8 cell lines, strains, targets or settings
[33] = tested on: Escherichia coli; experiment: Antibacterial activity against Escherichia coli assessed as percent resistant isolates by broth microdilution method; type: functional
[34] = tested on: Salmonella enteritidis; experiment: Antibacterial activity against Salmonella enterica serovar Enteritidis by broth microdilution method; type: functional, Salmonella enterica subsp. enterica serovar Enteritidis
[35] = tested on: Aeromonas veronii; experiment: Antibacterial activity against Aeromonas veronii assessed as percent susceptible isolates by broth microdilution method; type: functional
[36] = tested on: Vibrio vulnificus; experiment: Antibacterial activity against Vibrio vulnificus by broth microdilution method; type: functional
[37] = tested on: Vibrio sp.; experiment: Antibacterial activity against Vibrio sp. by broth microdilution method; type: functional
[38] = tested on: Plesiomonas shigelloides; experiment: Antibacterial activity against Plesiomonas shigelloides by broth microdilution method; type: functional
[39] = tested on: Yersinia pseudotuberculosis; experiment: Antibacterial activity against Yersinia pseudotuberculosis assessed as percent susceptible isolates by broth microdilution method; type: functional
[40] = tested on: Aeromonas sobria; experiment: Antibacterial activity against Aeromonas sobria assessed as percent susceptible isolates by broth microdilution method; type: functional
[41] = tested on: Salmonella typhimurium; experiment: Antibacterial activity against Salmonella enterica serovar Typhimurium by broth microdilution method; type: functional, Salmonella enterica subsp. enterica serovar Typhimurium
[42] = tested on: Vibrio parahaemolyticus; experiment: Antibacterial activity against Vibrio parahaemolyticus by broth microdilution method; type: functional
[43] = tested on: Shigella boydii; experiment: Antibacterial activity against Shigella boydii by broth microdilution method; type: functional
[44] = tested on: Salmonella paratyphi; experiment: Antibacterial activity against Salmonella enterica serovar Paratyphi by broth microdilution method; type: functional, Salmonella enterica subsp. enterica serovar Paratyphi A
[45] = tested on: Aeromonas hydrophila; experiment: Antibacterial activity against Aeromonas hydrophila assessed as percent susceptible isolates by broth microdilution method; type: functional
[46] = tested on: Aeromonas sobria; experiment: Antibacterial activity against Aeromonas sobria by broth microdilution method; type: functional
[47] = tested on: Salmonella paratyphi; experiment: Antibacterial activity against Salmonella enterica serovar Paratyphi assessed as percent susceptible isolates by broth microdilution method; type: functional, Salmonella enterica subsp. enterica serovar Paratyphi A

For O=C(O)c1cn(C2CC2)c2cc(N3CCNCC3)c(F)cc2c1=O [CIPROFLOXACIN], the MIC50 [1] was 0.06 µg/mL (≈ 0.181 µM), the MIC90 [1] was > 2 µg/mL and the MIC50 [2] was 0.016 µg/mL (≈ 0.0483 µM). It also gave an MIC90 [2] of 0.06 µg/mL (≈ 0.181 µM), an Activity [3] of 100% and an Activity [4] of 100%. The MIC50 [5] was 0.06 µg/mL (≈ 0.181 µM), the MIC90 [5] was > 2 µg/mL and the MIC50 [6] was 0.004 µg/mL (≈ 0.0121 µM). It also gave an MIC90 [6] of 0.06 µg/mL (≈ 0.181 µM), an MIC50 [7] of 0.016 µg/mL (≈ 0.0483 µM) and an MIC90 [7] of 0.06 µg/mL (≈ 0.181 µM). The Activity [8] was 0%, the MIC50 [9] was 0.008 µg/mL (≈ 0.0241 µM) and the MIC90 [9] was 0.016 µg/mL (≈ 0.0483 µM). The Activity [10] was 100%, the Activity [11] was 2% and the MIC50 [12] was 0.004 µg/mL (≈ 0.0121 µM). It also gave an MIC90 [12] of 0.06 µg/mL (≈ 0.181 µM), an Activity [13] of 16.5% and an MIC50 [14] of 0.004 µg/mL (≈ 0.0121 µM). It also gave an MIC90 [14] of 0.06 µg/mL (≈ 0.181 µM), an Activity [15] of 98% and an MIC50 [16] of 0.016 µg/mL (≈ 0.0483 µM). It also gave an MIC90 [16] of 0.06 µg/mL (≈ 0.181 µM), an Activity [17] of 0% and an Activity [18] of 97%. It also gave an MIC50 [19] of 0.008 µg/mL (≈ 0.0241 µM), an MIC90 [19] of 0.016 µg/mL (≈ 0.0483 µM) and an Activity [20] of 100%. The Activity [21] was 2%, the MIC50 [22] was 0.016 µg/mL (≈ 0.0483 µM) and the MIC90 [22] was 0.03 µg/mL (≈ 0.0905 µM). For the same compound, the Activity [23] was 100%, the MIC50 [24] was 0.008 µg/mL (≈ 0.0241 µM) and the MIC90 [24] was 0.016 µg/mL (≈ 0.0483 µM). It also gave an Activity [25] of 100%, an Activity [26] of 2% and an MIC50 [27] of 0.016 µg/mL (≈ 0.0483 µM). It also gave an MIC90 [27] of 0.03 µg/mL (≈ 0.0905 µM), an Activity [28] of 82.6% and an Activity [29] of 0%. For the same compound, the MIC50 [30] was 0.008 µg/mL (≈ 0.0241 µM), the MIC90 [30] was 0.016 µg/mL (≈ 0.0483 µM) and the Activity [31] was 2%. The Activity [32] was 0%, the Activity [33] was 3% and the MIC50 [34] was 0.008 µg/mL (≈ 0.0241 µM). For the same compound, the MIC90 [34] was 0.12 µg/mL (≈ 0.362 µM), the Activity [35] was 98% and the MIC50 [36] was 0.016 µg/mL (≈ 0.0483 µM). For the same compound, the MIC90 [36] was 0.06 µg/mL (≈ 0.181 µM), the MIC50 [37] was 0.016 µg/mL (≈ 0.0483 µM) and the MIC90 [37] was 0.06 µg/mL (≈ 0.181 µM). For the same compound, the MIC50 [38] was 0.004 µg/mL (≈ 0.0121 µM), the Activity [39] was 100% and the Activity [40] was 98%. For the same compound, the MIC50 [41] was 0.008 µg/mL (≈ 0.0241 µM), the MIC90 [41] was 0.12 µg/mL (≈ 0.362 µM) and the MIC50 [42] was 0.016 µg/mL (≈ 0.0483 µM). It also gave an MIC90 [42] of 0.06 µg/mL (≈ 0.181 µM), an MIC50 [43] of 0.008 µg/mL (≈ 0.0241 µM) and an MIC90 [43] of 0.016 µg/mL (≈ 0.0483 µM). It also gave an MIC [44] of 0.004 µg/mL (≈ 0.0121 µM), an Activity [45] of 98% and an MIC50 [46] of 0.004 µg/mL (≈ 0.0121 µM). It also gave an MIC90 [46] of 0.06 µg/mL (≈ 0.181 µM) and an Activity [47] of 100%.
